Assay results as given in patent publication US20020114822A1, “Attractants for yellow jackets” (priority 2000, published 2002).

Tested on: yellow jackets indigenous to the west coast (V. pensylvanica)
Experiment: Trials B: trap catch on the west coast, preferred formulation against heptyl butyrate formulations
Assay type: in vivo
Conditions: average of two trials of each formulation
Text: In the Examples and reported test results that follow, traps were usually hung in trees approximately four to six feet above the ground. A number of traps were used in each area where tests were made and the traps were spaced anywhere from fifteen to fifty feet apart. The traps used were commercially available traps generally of the top opening lid variety. Holes were made in the lids which were large enough to allow a yellow jacket to crawl inside the trap but small enough to confuse the yellow jackets in finding their way out. A trap of this kind is commercially available from Woodstream, Inc. sold under its trade name Yellow Jacket Trap®. The “vinegar” used in the examples was a vinegar as defined by FDA being a 5% acetic acid solution derived from apples. The “preferred formulation” used in the below reported trials was comprised of 58% apple juice concentrate; 36% vinegar; 5% poultry liver; and 1% dish detergent. Test were conducted on the west coast to compare the effectiveness of the preferred formulation of the invention with commercial formulations containing heptyl butyrate. Two trials of each formulation were made and the numbers indicate the average number of yellow jackets caught in the trials. […]

## CCCCCCCOC(=O)CCC [Heptyl Butyrate]
  average number of yellow jackets caught: 64
